Source: PubChem BioAssay AID330 (DTP/NCI, 2004)
Where “and” joins values, the source holds several entries; their conditions need not be identical. Equal entries are not always repeated. Inconclusive results and toxic doses are left out. Square brackets hold non-standard residues; d marks the D form. Peptide text beside a SMILES is read from it. ξ: configuration not given here. ξR = N=C(N)NCCCC(N)C(=O)O

Test system: P388 leukemia ip, CD2F1 mice, survival T/C
Assay: NCI In Vivo Anticancer Drug Screen. Data for tumor model P388 Leukemia (intraperitoneal) in CD2F1 (CDF1) mice
Conditions: endpoint: median survival time, higher = longer survival
Summary of the method: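 Mice carrying the transplanted tumor received test compound or vehicle. Survival was recorded in each group, and the value is the treated-group measurement divided by that of the vehicle-treated control group.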

[1] = dose: 50.0 mg/kg/injection, schedule: Q01DX005 (ip), vehicle: saline
[2] = dose: 100.0 mg/kg/injection, schedule: Q01DX005 (ip), vehicle: saline
[3] = dose: 200.0 mg/kg/injection, schedule: Q01DX005 (ip), vehicle: saline
[4] = dose: 50.0 mg/kg/injection, schedule: Q01DX009 (ip), vehicle: saline
[5] = dose: 100.0 mg/kg/injection, schedule: Q01DX009 (ip), vehicle: saline
[6] = dose: 200.0 mg/kg/injection, schedule: Q01DX009 (ip), vehicle: saline
[7] = dose: 50.0 mg/kg/injection, schedule: Q01DX005 (ip), vehicle: saline with Tween-80
[8] = dose: 100.0 mg/kg/injection, schedule: Q01DX005 (ip), vehicle: saline with Tween-80
[9] = dose: 200.0 mg/kg/injection, schedule: Q01DX005 (ip), vehicle: saline with Tween-80
[10] = dose: 25.0 mg/kg/injection, schedule: Q01DX009 (ip), vehicle: other
[11] = dose: 60.0 mg/kg/injection, schedule: Q01DX005 (ip), vehicle: saline
[12] = dose: 120.0 mg/kg/injection, schedule: Q01DX005 (ip), vehicle: saline
[13] = dose: 240.0 mg/kg/injection, schedule: Q01DX005 (ip), vehicle: saline
[14] = dose: 100.0 mg/kg/injection, schedule: Q01DX009 (ip), vehicle: saline with Tween-80
[15] = dose: 100.0 mg/kg/injection, schedule: Q04DX003 (ip), vehicle: saline with Tween-80
[16] = dose: 200.0 mg/kg/injection, schedule: Q01DX009 (ip), vehicle: saline with Tween-80
[17] = dose: 200.0 mg/kg/injection, schedule: Q04DX003 (ip), vehicle: saline with Tween-80
[18] = dose: 400.0 mg/kg/injection, schedule: Q04DX003 (ip), vehicle: saline with Tween-80
[19] = dose: 60.0 mg/kg/injection, schedule: Q01DX005 (ip), vehicle: saline with Tween-80
[20] = dose: 120.0 mg/kg/injection, schedule: Q01DX005 (ip), vehicle: saline with Tween-80
[21] = dose: 50.0 mg/kg/injection, schedule: Q01DX009 (ip), vehicle: saline with Tween-80

Structure (SMILES): O=[N+]([O-])c1ccc2nc(N/N=C/COC/C=N/Nc3nc4ccc([N+](=O)[O-])cc4s3)sc2c1
- T/C (dose: 100.0 mg/kg/injection, schedule: Q01DX001 (ip), vehicle: saline): 94 % of control
- T/C (dose: 200.0 mg/kg/injection, schedule: Q01DX001 (ip), vehicle: saline): 104 % of control
- T/C (dose: 400.0 mg/kg/injection, schedule: Q01DX001 (ip), vehicle: saline): 96 % of control

Structure (SMILES): CN1C(=O)/C(=C2\SC(=O)N(CNc3ccc(Br)cc3)C2=O)c2ccccc21
- T/C (dose: 60.0 mg/kg/injection, schedule: Q01DX005 (ip), vehicle: Klucel + Tween-80): 88 % of control
- T/C (dose: 240.0 mg/kg/injection, schedule: Q01DX005 (ip), vehicle: Klucel + Tween-80): 89 % of control

Structure (SMILES): CN1CCN(CC2C3CCC(C3)C2O)CC1 (configuration not stated)
- T/C (dose: 25.0 mg/kg/injection, schedule: Q01DX005 (ip), vehicle: saline): 100 % of control
- T/C [1]: 97 % of control
- T/C [2]: 96 % of control
- T/C [3]: 99 % of control

Structure (SMILES): FC(F)(F)c1ccc2nc3c4ccccc4c4ccccc4c3nc2c1
- T/C [4]: 116 % of control
- T/C [5]: 107 % of control
- T/C [6]: 101 % of control

Structure (SMILES): CCCCN(CCCC)/N=N\N(CCCC)CCCC
- T/C (dose: 12.5 mg/kg/injection, schedule: Q01DX005 (ip), vehicle: saline with Tween-80): 104 % of control and 93 % of control
- T/C (dose: 25.0 mg/kg/injection, schedule: Q01DX005 (ip), vehicle: saline with Tween-80): 104 % of control and 90 % of control
- T/C [7]: 107 % of control and 93 % of control and 94 % of control
- T/C [8]: 98 % of control and 100 % of control and 97 % of control
- T/C [9]: 105 % of control

Structure (SMILES): CCOC(=O)N1CCc2cc(OC)c(OC)cc2C1(O)Cc1cc(OC)c(OC)cc1Br (configuration not stated)
- T/C [10]: 109 % of control
- T/C (dose: 50.0 mg/kg/injection, schedule: Q01DX009 (ip), vehicle: other): 106 % of control
- T/C (dose: 100.0 mg/kg/injection, schedule: Q01DX009 (ip), vehicle: other): 103 % of control
- T/C (dose: 200.0 mg/kg/injection, schedule: Q01DX009 (ip), vehicle: other): 113 % of control
- T/C (dose: 400.0 mg/kg/injection, schedule: Q01DX009 (ip), vehicle: other): 113 % of control

Structure (SMILES): COc1cccc2c1C(=O)c1c(O)c3c(c(O)c1C2=O)CC(O)(/C=N/NS(=O)(=O)c1ccc(C)cc1)CC3OC1CC(N)C(O)C(C)O1 (configuration not stated)
- T/C (dose: 6.25 mg/kg/injection, schedule: Q01DX009 (ip), vehicle: other): 153 % of control
- T/C (dose: 12.5 mg/kg/injection, schedule: Q01DX009 (ip), vehicle: other): 178 % of control
- T/C [10]: 93 % of control

Structure (SMILES): CN(CCCCn1cnc2ccccc21)N=O
- T/C (dose: 20.0 mg/kg/injection, schedule: Q01DX001 (ip), vehicle: Klucel (hydroxypropylcellulose) (HPC)): 110 % of control
- T/C (dose: 40.0 mg/kg/injection, schedule: Q01DX001 (ip), vehicle: Klucel (hydroxypropylcellulose) (HPC)): 102 % of control
- T/C (dose: 80.0 mg/kg/injection, schedule: Q01DX001 (ip), vehicle: Klucel (hydroxypropylcellulose) (HPC)): 110 % of control

Structure (SMILES): O=C(CCC(=O)Nc1cc(Cl)ccc1Cl)CC(=O)c1ccc(Cl)cc1
- T/C [11]: 109 % of control
- T/C [12]: 106 % of control
- T/C [13]: 109 % of control

Structure (SMILES): O=C(Nc1ccc2c(c1)Cc1cccc(NC(=O)C(Cl)Cl)c1-2)C(Cl)Cl
- T/C [14]: 90 % of control
- T/C [15]: 91 % of control
- T/C [16]: 95 % of control
- T/C [17]: 91 % of control
- T/C (dose: 400.0 mg/kg/injection, schedule: Q01DX009 (ip), vehicle: saline with Tween-80): 100 % of control
- T/C [18]: 87 % of control

Structure (SMILES): CC(C)C(C(=O)CCN(C)C)c1ccc(Cl)cc1 (configuration not stated)
- T/C [7]: 116 % of control
- T/C [8]: 100 % of control

Structure (SMILES): Nc1nc(Br)nc2c1ncn2C1CC(O)C(CO)O1 (configuration not stated)
- T/C (dose: 1.5 mg/kg/injection, schedule: Q01DX005 (ip), vehicle: suspension in saline): 118 % of control
- T/C (dose: 3.0 mg/kg/injection, schedule: Q01DX005 (ip), vehicle: suspension in saline): 121 % of control
- T/C (dose: 15.0 mg/kg/injection, schedule: Q01DX005 (ip), vehicle: suspension in saline): 108 % of control
- T/C (dose: 15.0 mg/kg/injection, schedule: Q03HX009 (ip), vehicle: saline): 153 % of control and 155 % of control
- T/C (dose: 30.0 mg/kg/injection, schedule: Q03HX009 (ip), vehicle: saline with Tween-80): 164 % of control
- T/C (dose: 30.0 mg/kg/injection, schedule: Q03HX009 (ip), vehicle: saline): 167 % of control and 181 % of control
- T/C (dose: 60.0 mg/kg/injection, schedule: Q01DX005 (ip), vehicle: suspension in saline): 117 % of control
- T/C (dose: 60.0 mg/kg/injection, schedule: Q03HX009 (ip), vehicle: saline with Tween-80): 155 % of control
- T/C (dose: 60.0 mg/kg/injection, schedule: Q03HX009 (ip), vehicle: saline): 165 % of control and 172 % of control
- T/C (dose: 120.0 mg/kg/injection, schedule: Q01DX005 (ip), vehicle: suspension in saline): 122 % of control
- T/C (dose: 120.0 mg/kg/injection, schedule: Q03HX009 (ip), vehicle: saline with Tween-80): 157 % of control
- T/C (dose: 120.0 mg/kg/injection, schedule: Q03HX009 (ip), vehicle: saline): 172 % of control

Structure (SMILES): c1ccc(-c2nc(-c3ccccn3)cc3ccccc23)cc1
- T/C (dose: 100.0 mg/kg/injection, schedule: Q01DX001 (ip), vehicle: saline with Tween-80): 91 % of control
- T/C (dose: 200.0 mg/kg/injection, schedule: Q01DX001 (ip), vehicle: saline with Tween-80): 92 % of control
- T/C (dose: 400.0 mg/kg/injection, schedule: Q01DX001 (ip), vehicle: saline with Tween-80): 112 % of control

Structure (SMILES): CC1=C(C(C)(C)C)C(=O)c2ccccc2C1=O
- T/C (dose: 50.0 mg/kg/injection, schedule: Q01DX005 (ip), vehicle: Klucel (hydroxypropylcellulose) (HPC)): 100 % of control
- T/C (dose: 100.0 mg/kg/injection, schedule: Q01DX005 (ip), vehicle: Klucel (hydroxypropylcellulose) (HPC)): 103 % of control
- T/C (dose: 200.0 mg/kg/injection, schedule: Q01DX005 (ip), vehicle: Klucel (hydroxypropylcellulose) (HPC)): 107 % of control

Structure (SMILES): COC(=O)c1nc(SC)[nH]c1CC(N)=O
- T/C [19]: 101 % of control
- T/C [20]: 100 % of control
- T/C (dose: 240.0 mg/kg/injection, schedule: Q01DX005 (ip), vehicle: saline with Tween-80): 96 % of control

Structure (SMILES): CC(N)(CCS(=O)(=O)CP(=O)(O)O)C(=O)O (configuration not stated)
- T/C [11]: 103 % of control
- T/C [12]: 97 % of control
- T/C [13]: 93 % of control

Structure (SMILES): O=S(=O)(Cc1ccccc1)c1ccccc1
- T/C [4]: 118 % of control
- T/C [5]: 118 % of control
- T/C [6]: 116 % of control

Structure (SMILES): O=C1CN(c2ccccc2)C(=O)CN1/N=C/c1ccc(O)c(O)c1
- T/C [7]: 93 % of control
- T/C [8]: 100 % of control
- T/C [9]: 101 % of control

Structure (SMILES): NC(N)=NCCCC(N)C(=O)NCC(=O)NCC(=O)O (stereo not drawn) (H-[ξR]-Gly-Gly-OH)
- T/C [1]: 98 % of control
- T/C [2]: 96 % of control
- T/C [3]: 98 % of control

Structure (SMILES): O=C([O-])c1cc(Br)cc(Br)c1[OH2+].O=C([O-])c1cc(Br)cc(Br)c1[OH2+].[Mn+2]
- T/C [19]: 109 % of control
- T/C [20]: 115 % of control

Structure (SMILES): CC(C)(C)N=C(c1ccccc1)N1CCCCC1
- T/C [21]: 100 % of control
- T/C [14]: 90 % of control

Structure (SMILES): CC1=NN(c2ccc(Cl)cc2)C(=O)/C1=C\c1c(C)[nH]n(-c2ccc(Cl)cc2)c1=O
- T/C [7]: 110 % of control
- T/C [8]: 101 % of control
- T/C [9]: 96 % of control

Structure (SMILES): O=C(/C=C/c1ccccc1)c1ccccc1
- T/C (dose: 12.5 mg/kg/injection, schedule: Q01DX009 (ip), vehicle: Klucel (hydroxypropylcellulose) (HPC)): 100 % of control
- T/C (dose: 25.0 mg/kg/injection, schedule: Q01DX009 (ip), vehicle: Klucel (hydroxypropylcellulose) (HPC)): 105 % of control
- T/C (dose: 50.0 mg/kg/injection, schedule: Q01DX009 (ip), vehicle: Klucel (hydroxypropylcellulose) (HPC)): 100 % of control
- T/C (dose: 100.0 mg/kg/injection, schedule: Q01DX009 (ip), vehicle: Klucel (hydroxypropylcellulose) (HPC)): 108 % of control

Structure (SMILES): O=C(CC(=NCCCN=C(CC(=O)c1ccccc1)c1ccccc1)c1ccccc1)c1ccccc1
- T/C [21]: 96 % of control
- T/C [14]: 100 % of control
- T/C [16]: 100 % of control

Structure (SMILES): CCCCCCCCCSCC
- T/C [21]: 100 % of control
- T/C [14]: 109 % of control
- T/C [15]: 109 % of control
- T/C [16]: 109 % of control
- T/C [17]: 100 % of control
- T/C [18]: 86 % of control
